Data from patent US20230321253A1, “BIFUNCTIONAL COMPOUNDS AND PHARMACEUTICAL USES THEREOF” (RISEN (SUZHOU) PHARMA TECH CO., LTD., priority 2022, published 2023).

Biological target: T1, KRAS-G12D protein (Homo sapiens, UniProt P01116, G12D)
T1 construct: host or cells: Aspc-1 cells
Test: KRAS-G12D protein degradation study in Aspc-1 cells (western blot)
Type: cell-based
Conditions: for inhibition at 0.1 µM / inhibition at 1 µM: ASPC1, 24 h, 24 hours, read-out: Rate of protein degradation (KRAS^G12D); for inhibition at 0.1 µM: Aspc-1 cells treated with 0.1 μM compound; for inhibition at 1 µM: Aspc-1 cells treated with 1 μM compound
Procedure: Aspc-1 (Cobioer, CBP60546) cells in exponential growth phase were inoculated on a 6-well cell culture plate (Corning, 3516) at density of 1E6/well; and cells in the plate were cultured in 37° C. incubator containing 5% carbon dioxide. The next day, test compounds were dissolved in DMSO (Sigma, RNBF5902) for the preparation of a 10 mM concentration stock solution. The stock solution was diluted with complete medium (RPMI-1640 supplemented with 10% fetal bovine serum, 1% penicillin-streptomycin), yielding working solutions of various concentrations. The plate, after the addition of compounds, was placed in a 5% carbon dioxide incubator, and incubated at 37° C. for 24 hours (final DMSO concentration was 0.1%). The plate was then removed from the incubator, and the cells were washed twice with precooled PBS (Gibco, 14190250), followed by addition of 80 μL RIPA lysis buffer (containing protease inhibitor (Invitrogen™, AM2696)) to each well. The adherent cells were scraped off with a cell scraper, and the cell lysate was transferred to a 1.5 mL centrifuge tube followed with a 30-minute incubation on ice. The lysate was then clarified with centrifugation at 14000 rpm for 10 min at 4° C. The supernatant was transferred into a new 1.5 mL centrifuge tube, and protein concentration was measured with BCA protein detection kit (Thermo Fisher, 23225). KRAS-G12D protein level was assessed by western blot.
A mixture of cell lysate (40 μL) and loading buffer (10 μL 5×SDS (Beyotime, P0015L)) was denatured in a water bath at 95° C. for 10 min. The denatured protein sample, at 30 μL/well, was loaded into the corresponding well of a 4-20% Bis-Tris gel (Kingsley, M00656). Protein samples were initially electrophoresed at 80 V for 30 minutes, followed by 120 V for 40 minutes, until the bromophenol blue strip ran to an appropriate position. After electrophoresis, iBlot2 (Life Technologies, IB21001) was used to transfer the separated samples onto PVDF film. The PVDF membrane was washed with double-distilled water and then blocked in TBST (Thermo Scientific, 28360) buffer containing 5% non-fat milk, for 2 hours. Blocked membrane was rinsed with tris-buffered saline tween-20 (Thermo Scientific, 28360, TBST) three times, 10 minutes each. Membrane was then incubated with 1:1000 diluted KRAS primary antibody (CST, cat #14429S) overnight at 4° C. Membrane was rinsed as described previously followed by 1 hour incubation of secondary antibody at room temperature. After washing the film three times with TBST, ECL color developing solution was applied, and image was captured with Biorad Chemi Doc gel imager. The band gray value was quantified (Image Lab), and protein degradation level was calculated according to the following formula:
Level of RAS protein expression=(RAS-compound/GAPDH)/(RAS-DMSO/GAPDH)
Level of degradation (%)=(1−Rate of RAS protein expression)×100
The symbols “−”, “+”, “++”, and “+++” indicate that the degradation level of KRAS^G12D protein induced by the test compounds was 10% or less, 11 to 30%, 31 to 60%, and greater than 60%, respectively.
Half-maximum degradation concentrations (DC50s) of exemplary test compounds were calculated using GraphPad Prism and their values are shown in Table 6. The symbols “++++”, “+++”, “++” and “+” indicate DC50 equal or less than 10 nM, 11-50 nM, 51-100 nM, and 101-200 nM, respectively.

T1 sequence (P01116 1-188 isoform P01116-2 G12D): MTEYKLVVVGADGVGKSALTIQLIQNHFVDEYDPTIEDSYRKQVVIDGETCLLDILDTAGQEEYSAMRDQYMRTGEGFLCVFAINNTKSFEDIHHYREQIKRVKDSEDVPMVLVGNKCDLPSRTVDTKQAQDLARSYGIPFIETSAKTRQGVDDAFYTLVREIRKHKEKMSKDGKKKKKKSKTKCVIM

| Compound | inhibition at 0.1 µM | inhibition at 1 µM | DC50 (Aspc-1 cells, read-out: DC50 of test compound-induced KRAS^G12D protein degradation) |
| --- | --- | --- | --- |
| C#Cc1c(F)ccc2cc(O)cc(-c3ncc4c(N5CC6CCC(C5)N6)nc(OC[C@@H]5C[C@@H](NC(=O)C6(C(=O)N7CCC(c8ccc9c(C%10CCC(=O)NC%10=O)nn(C)c9c8)CC7)CC6)CN5C)nc4c3F)c12 (stereo in doubt) [Compound 96] | 11 to 30% |  |  |
| C#Cc1c(F)ccc2cc(O)cc(-c3ncc4c(N5CC6CCC(C5)N6)nc(OC5CCN(CCCCCCCCCC(=O)N6CCN(C(=O)C[C@H](NC(=O)[C@@H]7CC(O)CN7C(=O)[C@@H](NC(=O)C7(F)CC7)C(C)(C)C)c7ccc(-c8scnc8C)cc7)CC6)C5)nc4c3F)c12 (stereo in doubt) [Compound 105] | 31 to 60% |  |  |
| C#Cc1c(F)ccc2cc(O)cc(-c3ncc4c(N5CC6CCC(C5)N6)nc(OCCCN5CCN(CCCCCC(=O)N[C@H](C(=O)N6C[C@H](O)C[C@H]6C(=O)NCc6ccc(-c7scnc7C)cc6)C(C)(C)C)CC5)nc4c3F)c12 [Compound 28] |  | 11 to 30% |  |
| C#Cc1c(F)ccc2cc(O)cc(-c3ncc4c(N5CC6CCC(C5)N6)nc(OCCCN5CCN(CCCC(=O)N[C@H](C(=O)N6C[C@H](O)C[C@H]6C(=O)NCc6ccc(-c7scnc7C)cc6)C(C)(C)C)CC5)nc4c3F)c12 [Compound 30] |  | 11 to 30% |  |
| C#Cc1c(F)ccc2cc(O)cc(-c3ncc4c(N5CC6CCC(C5)N6)nc(OC5CCN(CCOCCOCC(=O)N[C@H](C(=O)N6C[C@H](O)C[C@H]6C(=O)NCc6ccc(-c7scnc7C)cc6)C(C)(C)C)CC5)nc4c3F)c12 [Compound 53] |  | 11 to 30% |  |
| C#Cc1c(F)ccc2cc(O)cc(-c3ncc4c(N5CC6CCC(C5)N6)nc(OC5CCN(CCOCCOCCOCC(=O)N[C@H](C(=O)N6C[C@H](O)C[C@H]6C(=O)NCc6ccc(-c7scnc7C)cc6)C(C)(C)C)CC5)nc4c3F)c12 [Compound 54] |  | ≤ 10% |  |
| C#Cc1c(F)ccc2cc(O)cc(-c3ncc4c(N5CC6CCC(C5)N6)nc(OC5CCN(CCCCCCCCCCC(=O)N[C@H](C(=O)N6C[C@H](O)C[C@H]6C(=O)N[C@@H](C)c6ccc(-c7scnc7C)cc6)C(C)(C)C)C5)nc4c3F)c12 (stereo partly shown) [Compound 55] | > 60% | > 60% |  |
| C#Cc1c(F)ccc2cc(O)cc(-c3ncc4c(N5CC6CCC(C5)N6)nc(OCC5CCN(CCCCCCCCCCC(=O)N[C@H](C(=O)N6C[C@H](O)C[C@H]6C(=O)N[C@@H](C)c6ccc(-c7scnc7C)cc6)C(C)(C)C)C5)nc4c3F)c12 (stereo partly shown) [Compound 56] | 31 to 60% | > 60% |  |
| C#Cc1c(F)ccc2cc(O)cc(-c3ncc4c(N5CC6CCC(C5)N6)nc(OCC5CCN(CCCCCCCCCCC(=O)N6CCC(c7ccc8c(C9CCC(=O)NC9=O)nn(C)c8c7)CC6)C5)nc4c3F)c12 (stereo not shown) [Compound 57] | > 60% | > 60% |  |
| CCc1c(F)ccc2cc(O)cc(-c3ncc4c(N5CC6CCC(C5)N6)nc(OCC56CCCN5[C@@H](COC(=O)NCCOCCOCCC(=O)N[C@H](C(=O)N5C[C@H](O)C[C@H]5C(=O)N[C@@H](C)c5ccc(-c7scnc7C)cc5)C(C)(C)C)CC6)nc4c3F)c12 (stereo partly shown) [Compound 58] | 11 to 30% | 31 to 60% |  |
| C#Cc1c(F)ccc2cc(O)cc(-c3ncc4c(N5CC6CCC(C5)N6)nc(OCCCN5CCN(CC(=O)N6CCN(c7ccc8c(c7)C(=O)N(C7CCC(=O)NC7=O)C8=O)CC6)CC5)nc4c3F)c12 (stereo not shown) [Compound 59] | ≤ 10% | ≤ 10% |  |
| C#Cc1c(F)ccc2cc(O)cc(-c3ncc4c(N5CC6CCC(C5)N6)nc(OCCCN5CCN(C(=O)CN6CCN(c7ccc8c(c7)C(=O)N(C7CCC(=O)NC7=O)C8=O)CC6)CC5)nc4c3F)c12 (stereo not shown) [Compound 60] | ≤ 10% | 11 to 30% |  |
| C#Cc1c(F)ccc2cc(O)cc(-c3ncc4c(N5CC6CCC(C5)N6)nc(OCCCN5CCN(C(=O)CN6CCN(c7cccc8c7C(=O)N(C7CCC(=O)NC7=O)C8=O)CC6)CC5)nc4c3F)c12 (stereo not shown) [Compound 61] | ≤ 10% | ≤ 10% |  |
| C#Cc1c(F)ccc2cc(O)cc(-c3ncc4c(N5CC6CCC(C5)N6)nc(OCCCN5CCN(CC(=O)N6CCN(c7cccc8c7C(=O)N(C7CCC(=O)NC7=O)C8=O)CC6)CC5)nc4c3F)c12 (stereo not shown) [Compound 62] | ≤ 10% | ≤ 10% |  |
| C#Cc1c(F)ccc2cc(O)cc(-c3ncc4c(N5CC6CCC(C5)N6)nc(OCCCN5CCN(CC(=O)N6CCN(C(=O)C[C@H](NC(=O)[C@@H]7C[C@@H](O)CN7C(=O)[C@@H](NC(=O)C7(F)CC7)C(C)(C)C)c7ccc(-c8scnc8C)cc7)CC6)CC5)nc4c3F)c12 [Compound 63] | ≤ 10% | 11 to 30% |  |
| C#Cc1c(F)ccc2cc(O)cc(-c3ncc4c(N5CC6CCC(C5)N6)nc(OCCCN5CCN(C(=O)C[C@H](NC(=O)[C@@H]6C[C@@H](O)CN6C(=O)[C@@H](NC(=O)C6(F)CC6)C(C)(C)C)c6ccc(-c7scnc7C)cc6)CC5)nc4c3F)c12 [Compound 64] | ≤ 10% | 11 to 30% |  |
| CCc1c(F)ccc2cc(O)cc(-c3ncc4c(N5CC6CCC(C5)N6)nc(OCC56CCCN5[C@@H](COC(=O)NCCCCC(=O)N[C@H](C(=O)N5C[C@H](O)C[C@H]5C(=O)N[C@@H](C)c5ccc(-c7scnc7C)cc5)C(C)(C)C)CC6)nc4c3F)c12 (stereo partly shown) [Compound 67] | ≤ 10% | 31 to 60% |  |
| CCc1c(F)ccc2cc(O)cc(-c3ncc4c(N5CC6CCC(C5)N6)nc(OCC56CCCN5[C@@H](COC(=O)NCCCCCCCC(=O)N[C@H](C(=O)N5C[C@H](O)C[C@H]5C(=O)N[C@@H](C)c5ccc(-c7scnc7C)cc5)C(C)(C)C)CC6)nc4c3F)c12 (stereo partly shown) [Compound 68] | 31 to 60% | > 60% |  |
| C#Cc1c(F)ccc2cc(O)cc(-c3ncc4c(N5CC6CCC(C5)N6)nc(OC5CCN(CC(=O)N6CCN(C(=O)C[C@H](NC(=O)[C@@H]7C[C@@H](O)CN7C(=O)[C@@H](NC(=O)C7(F)CC7)C(C)(C)C)c7ccc(-c8scnc8C)cc7)CC6)CC5)nc4c3F)c12 [Compound 71] | ≤ 10% |  |  |
| C#Cc1c(F)ccc2cc(O)cc(-c3ncc4c(N5CC6CCC(C5)N6)nc(OCCCN5CCC(C(=O)N6CCC(c7ccc8c(C9CCC(=O)NC9=O)nn(C)c8c7)CC6)CC5)nc4c3F)c12 (stereo not shown) [Compound 72] | > 60% | > 60% |  |
| C#Cc1c(F)ccc2cc(O)cc(-c3ncc4c(N5CC6CCC(C5)N6)nc(OCCCN5CCN(CCC(=O)C6CCC(c7ccc8c(C9CCC(=O)NC9=O)nn(C)c8c7)CC6)CC5)nc4c3F)c12 (stereo not shown) [Compound 74] | 31 to 60% |  |  |
| C#Cc1c(F)ccc2cc(O)cc(-c3ncc4c(N5CC6CCC(C5)N6)nc(OCCCN5CCC(C(=O)N6CCC(N7CCC(c8ccc9c(C%10CCC(=O)NC%10=O)nn(C)c9c8)CC7)CC6)CC5)nc4c3F)c12 (stereo not shown) [Compound 75] | > 60% |  | < 0.01 µM |
| C#Cc1c(F)ccc2cc(O)cc(-c3ncc4c(N5CC6CCC(C5)N6)nc(OC5CCN(CCCCCCCCOc6cc(-c7ncsc7C)ccc6CNC(=O)[C@@H]6C[C@@H](O)CN6C(=O)[C@@H](NC(=O)C6(F)CC6)C(C)(C)C)CC5)nc4c3F)c12 [Compound 76] | ≤ 10% |  |  |
| C#Cc1c(F)ccc2cc(O)cc(-c3ncc4c(N5CC6CCC(C5)N6)nc(OC5CCN(CCCCCCCCCCOc6cc(-c7ncsc7C)ccc6CNC(=O)[C@@H]6C[C@@H](O)CN6C(=O)[C@@H](NC(=O)C6(F)CC6)C(C)(C)C)CC5)nc4c3F)c12 [Compound 77] | ≤ 10% |  |  |
| C#Cc1c(F)ccc2cc(O)cc(-c3ncc4c(N5CC6CCC(C5)N6)nc(OC5CCN(CCCCCCCCCCCCOc6cc(-c7ncsc7C)ccc6CNC(=O)[C@@H]6C[C@@H](O)CN6C(=O)[C@@H](NC(=O)C6(F)CC6)C(C)(C)C)CC5)nc4c3F)c12 [Compound 78] | ≤ 10% |  |  |
| CCc1c(F)ccc2cc(O)cc(-c3ncc4c(N5CC6CCC(C5)N6)nc(OC5CCN(CCCCCCCCCCC(=O)N[C@H](C(=O)N6C[C@H](O)C[C@H]6C(=O)N[C@@H](C)c6ccc(-c7scnc7C)cc6)C(C)(C)C)CC5)nc4c3F)c12 [Compound 80] | 31 to 60% |  |  |
